Data from ChEMBL document CHEMBL3621204, “Dual biological functions of the apoptotic activity and anti-inflammatory effect by alcyonolide congeners from the Okinawan soft coral, Cespitularia sp” (Bioorg Med Chem Lett, 2015).
The source made the active and inactive calls. The calls are words filed in the database; no cut-off is given here.

Tests used:
[1] = tested on: RAW264.7; test: Antiinflammatory activity in mouse RAW264.7 cells assessed as inhibition in LPS-stimulated nitric oxide production; type: functional, cell-based
[2] = tested on: RAW264.7; test: Anti-inflammatory activity in mouse RAW264.7 cells assessed as inhibition of LPS/IFN-gamma-stimulated iNOS mRNA expression at 2 uM by RT-PCR analysis (reference value: 28.91 ng/uL); type: functional
[3] = tested on: RAW264.7; test: Anti-inflammatory activity in mouse RAW264.7 cells assessed as inhibition of LPS/IFN-gamma-stimulated iNOS mRNA expression by RT-PCR analysis; type: functional, cell-based
[4] = tested on: RAW264.7; test: Anti-inflammatory activity in mouse RAW264.7 cells assessed as inhibition of LPS/IFN-gamma-stimulated COX2 mRNA expression by RT-PCR analysis; type: functional, cell-based
[5] = tested on: RAW264.7; test: Anti-inflammatory activity in mouse RAW264.7 cells assessed as inhibition of LPS/IFN-gamma-stimulated COX2 mRNA expression at 4 uM by RT-PCR analysis (reference value: 54.51 ng/uL); type: functional
[6] = tested on: RAW264.7; test: Cytotoxicity against LPS/IFN-gamma stimulated mouse RAW264.7 cells assessed as cell survival at 2 to 8 uM by MTT assay; type: cell-based; conditions: raw264.7, 8 µM
[7] = tested on: HCT-116; test: Cytotoxicity against human HCT116 cells; type: functional, cell-based
[8] = tested on: HCT-116; test: Induction of apoptosis in human HCT116 cells assessed as nuclear condensation at 100 uM by fluorescence assay; type: functional, cell-based
[9] = tested on: RAW264.7; test: Anti-inflammatory activity in mouse RAW264.7 cells assessed as inhibition of LPS/IFN-gamma-stimulated COX2 mRNA expression at 2 uM by RT-PCR analysis (reference value: 54.51 ng/uL); type: functional
[10] = tested on: RAW264.7; test: Anti-inflammatory activity in mouse RAW264.7 cells assessed as inhibition of LPS/IFN-gamma-stimulated COX2 mRNA expression at 8 uM by RT-PCR analysis (reference value: 54.51 ng/uL); type: functional
[11] = tested on: HCT-116; test: Induction of apoptosis in human HCT116 cells assessed as activation of caspase 3/7 at 2.5 to 20 uM after 2 hrs 30 mins by luciferase reporter assay; type: functional, cell-based
[12] = tested on: RAW264.7; test: Anti-inflammatory activity in mouse RAW264.7 cells assessed as inhibition of LPS/IFN-gamma-stimulated iNOS mRNA expression at 4 uM by RT-PCR analysis (reference value: 28.91 ng/uL); type: functional
[13] = tested on: RAW264.7; test: Anti-inflammatory activity in mouse RAW264.7 cells assessed as inhibition of LPS/IFN-gamma-stimulated iNOS mRNA expression at 8 uM by RT-PCR analysis (reference value: 28.91 ng/uL); type: functional

O=C1c2c(O)cc(O)cc2O[C@H](c2ccc(O)cc2)[C@H]1O
inhibition [1]: Dose-dependent effect

C=C(CCCC(C)=O)[C@@H]1[C@@H](OC(C)=O)OC=C2[C@H](CC=C(C)C)OC(=O)C[C@H]21
Activity [2]: 24.62 ng/µL
inhibition [3]: Dose-dependent effect
inhibition [4]: Dose-dependent effect
Activity [5]: 21.48 ng/µL
Activity [6]: Non-toxic
IC50 [7]: 5.85 µM
Activity [8]: Active
inhibition [1]: Dose-dependent effect
Activity [9]: 37.36 ng/µL
Activity [10]: 13.75 ng/µL
Activity [11]: Active
Activity [12]: 10.94 ng/µL
Activity [13]: 8.25 ng/µL

C=CC(=C)[C@@H]1[C@@H](OC(C)=O)OC=C2[C@H](CC=C(C)C)OC(=O)C[C@H]21
Activity [2]: 20.66 ng/µL
inhibition [3]: Dose-dependent effect
inhibition [4]: Dose-dependent effect
Activity [5]: 31.77 ng/µL
Activity [6]: Non-toxic
IC50 [7]: 6.04 µM
Activity [8]: Active
inhibition [1]: Dose-dependent effect
Activity [9]: 37.1 ng/µL
Activity [10]: 15.93 ng/µL
Activity [11]: Active
Activity [12]: 12.44 ng/µL
Activity [13]: 6.58 ng/µL
